Assay results reported in patent publication EP0603240B1, “SAFENING HERBICIDAL PYRAZOLYLSULFONYLUREAS” (priority 1991, dated 1993).

Assays:
Format in all cases: in vivo
[1] = test system: corn; test: Example 24, Procedure II: Herbicide No. 1 + co-herbicides Nos. 4, 6, 7, 12 with Antidote Nos. 15 and 17-21
Method in brief: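 Greenhouse pots, herbicide No. 1 plus co-herbicides and antidote in acetone incorporated into silt loam soil covering the corn seed bed, with giant foxtail and velvetleaf; initial overhead irrigation equal to 0.6 cm rainfall, then sub-irrigation. Antidote at 2.24 kg/ha; percent injury read 13 days after application, duplicate average.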

[2] = test system: barnyardgrass (Echinochloa crusgalli); test: Example 10, Procedure II: Herbicide No. 1 + propachlor (No. 5) with antidotes
Method in brief: (§1)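 Herbicide No. 1 plus propachlor and antidote, each in acetone, incorporated into silt loam cover soil over seeded corn/weed beds; untreated and herbicide-only controls included. Initial overhead irrigation equal to 0.6 cm rainfall, then greenhouse sub-irrigation. Response scored as percent injury; safening taken as injury difference without versus with antidote.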

[3] = test system: velvetleaf (Abutilon theophrasti); test: as above
Method in brief: as §1

[4] = test system: Giant foxtail (Setaria fabergi); test: Example 23, Procedure II: Antidote Nos. 15 and 17-21 against Herbicide No. 1, 13 days after application
Method in brief: (§2)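 Herbicide and antidote were applied in acetone, mixed into the silt loam used to cover the seeded beds, then given overhead irrigation equal to 0.6 cm rainfall and sub-irrigated in the greenhouse. Antidotes were applied at 2.24 or 0.56 kg/ha. Percent injury is the mean of duplicates, scored 13 days after application.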

[5] = test system: velvetleaf (Abutilon theophrasti); test: as above
Method in brief: as §2

[6] = test system: corn; test: as above; conditions: 13 days after application
Method in brief: as §2

[7] = test system: barnyardgrass (Echinochloa crusgalli); test: Example 22: retest of Example 21 at reduced greenhouse temperatures; conditions: Table 22
Method: (§3) Containers were filled and compacted with a fumigated silt loam top soil to a depth of about 1.3 cm from the top of the container. A first container was designated as an untreated control, a second container was designated as a herbicide control, and a third container was designated as a herbicide + antidote test container. Each of the containers was seeded with a crop species. A measured amount of herbicide dispersed or dissolved in acetone was applied to a measured quantity of soil. To this same quantity of soil treated with herbicide, there was added a measured amount of antidote dispersed or dissolved in acetone. The quantity of soil treated with the herbicide and antidote was thoroughly mixed to incorporate the herbicide and antidote in the soil uniformly. The seed bed in the third container of soil was covered with the soil treated with the herbicide and antidote and the container was leveled. For each test series, the seed beds of the first and second containers were likewise covered by soil layers. the cover layer of the first container was not treated with herbicide or antidote.
(§4) The containers were then placed on a bench in a greenhouse and sub-irrigated as required for the duration of the test. […] Plant response is measured in terms of percent injury. Antidote efficacy is indicated as the difference in plant injury by the herbicide(s) without the antidote and with the antidote.
(§5) This procedure is the same as Procedure I, but modified in the manner that after incorporation of the chemicals (herbicide and antidote) the containers with the covered seedbed were treated with an initial overhead irrigation equivalent to 0.6 cm rainfall, then subsequently sub-irrigated as required on greenhouse benches.
(§6) In the series of greenhouse tests described below, for routine screening purposes the herbicide/antidote compositions were tested in crop/weed combinations involving corn as the crop and either or both of the weeds barnyardgrass (Echinochloa crusgalli), a monocotyledonous weed, and velvetleaf (Abutilon theophrasti), a dicotyledonous weed. In the tables below, these weeds are indicated by the symbols "BYG" and "VL", respectively.
(§7) In this example, tests were conducted as in the preceding Examples 18-20, except here the co-herbicidal component was SUTAN® PLUS, a commercial product comprising as the active herbicidal ingredient the compound butylate (Herbicide No. 10) and an antidote […] (Antidote No. 1). Again, the antidotal compounds herein were Nos. 1, 2, 7, 13 and 15. Procedure II was used.
(§8) The experiments in this example were designed as a retest of those described in Example 21 in view of the uncharacteristically poor corn safety and weed control, believed to have resulted from unseasonably high temperatures in the greenhouse. Accordingly, temperatures were reduced for these tests.

[8] = test system: velvetleaf (Abutilon theophrasti); test: as above; conditions: Table 22
Method: as §3, §4, §5, §6, §7, §8

[9] = test system: corn; test: as above; conditions: Table 22
Method: as §3, §4, §5, §7, §8

[10] = Herbicide No.1 0.14 kg/ha + Herbicide No.5 4.48 kg/ha, antidote rate 2.24 kg/ha
[11] = Herbicide No.1 0.14 kg/ha + Herbicide No.5 4.48 kg/ha, antidote rate 8.96 kg/ha
[12] = Herbicide No.1 0.56 kg/ha + Herbicide No.5 4.48 kg/ha, antidote rate 2.24 kg/ha
[13] = Herbicide No.1 0.56 kg/ha + Herbicide No.5 4.48 kg/ha, antidote rate 8.96 kg/ha
[14] = Table 23A, Herb. No. 1 0.14 Kg/Ha + antidote 2.24 Kg/ha
[15] = Table 23A, Herb. No. 1 0.28 Kg/Ha + antidote 2.24 Kg/ha
[16] = Table 23A, Herb. No. 1 0.56 Kg/Ha + antidote 2.24 Kg/ha
[17] = Table 23A, Herb. No. 1 1.12 Kg/Ha + antidote 2.24 Kg/ha
[18] = Table 23B, Herb. No. 1 0.14 Kg/Ha + antidote 0.56 Kg/ha
[19] = Table 23B, Herb. No. 1 0.28 Kg/Ha + antidote 0.56 Kg/ha
[20] = Table 23B, Herb. No. 1 0.56 Kg/Ha + antidote 0.56 Kg/ha
[21] = Table 23B, Herb. No. 1 1.12 Kg/Ha + antidote 0.56 Kg/ha
[22] = Herbicide No.1 0.56 Kg/ha + SUTAN + 8.96 Kg/ha + antidote 2.24 Kg/ha
[23] = Herbicide No.1 0.56 Kg/ha + SUTAN + 8.96 Kg/ha + antidote 8.96 Kg/ha
[24] = Herbicide No.1 1.12 Kg/ha + SUTAN + 8.96 Kg/ha + antidote 2.24 Kg/ha
[25] = Herbicide No.1 1.12 Kg/ha + SUTAN + 8.96 Kg/ha + antidote 8.96 Kg/ha

SMILES: CC1(C)OC(c2ccco2)CN1C(=O)C(Cl)Cl (stereo not drawn) [compound 15]
- % Inhibition Corn ([1]; Herb. No. 1 0.07 Kg/ha + Co-Herb. No. 4 1.12 Kg/ha + antidote 2.24 Kg/ha): 0%
- % Inhibition Corn ([1]; Herb. No. 1 0.07 Kg/ha + Co-Herb. No. 6 0.14 Kg/ha + antidote 2.24 Kg/ha): 5%
- % Inhibition Corn ([1]; Herb. No. 1 0.07 Kg/ha + Co-Herb. No. 7 0.28 Kg/ha + antidote 2.24 Kg/ha): 0%
- % Inhibition Corn ([1]; Herb. No. 1 0.07 Kg/ha + Co-Herb. No. 12 0.28 Kg/ha + antidote 2.24 Kg/ha): 5%
- % Inhibition Corn ([1]; Herb. No. 1 0.14 Kg/ha + Co-Herb. No. 4 1.12 Kg/ha + antidote 2.24 Kg/ha): 10%
- % Inhibition Corn ([1]; Herb. No. 1 0.14 Kg/ha + Co-Herb. No. 6 0.14 Kg/ha + antidote 2.24 Kg/ha): 5%
- % Inhibition Corn ([1]; Herb. No. 1 0.14 Kg/ha + Co-Herb. No. 7 0.28 Kg/ha + antidote 2.24 Kg/ha): 0%
- % Inhibition Corn ([1]; Herb. No. 1 0.14 Kg/ha + Co-Herb. No. 12 0.28 Kg/ha + antidote 2.24 Kg/ha): 5%
- % Inhibition Corn ([1]; Herb. No. 1 0.28 Kg/ha + Co-Herb. No. 4 1.12 Kg/ha + antidote 2.24 Kg/ha): 5%
- % Inhibition Corn ([1]; Herb. No. 1 0.28 Kg/ha + Co-Herb. No. 6 0.14 Kg/ha + antidote 2.24 Kg/ha): 10%
- % Inhibition Corn ([1]; Herb. No. 1 0.28 Kg/ha + Co-Herb. No. 7 0.28 Kg/ha + antidote 2.24 Kg/ha): 0%
- % Inhibition Corn ([1]; Herb. No. 1 0.28 Kg/ha + Co-Herb. No. 12 0.28 Kg/ha + antidote 2.24 Kg/ha): 5%
- % Inhibition Corn ([1]; Herb. No. 1 0.56 Kg/ha + Co-Herb. No. 4 1.12 Kg/ha + antidote 2.24 Kg/ha): 15%
- % Inhibition Corn ([1]; Herb. No. 1 0.56 Kg/ha + Co-Herb. No. 6 0.14 Kg/ha + antidote 2.24 Kg/ha): 10%
- % Inhibition Corn ([1]; Herb. No. 1 0.56 Kg/ha + Co-Herb. No. 7 0.28 Kg/ha + antidote 2.24 Kg/ha): 5%
- % Inhibition Corn ([1]; Herb. No. 1 0.56 Kg/ha + Co-Herb. No. 12 0.28 Kg/ha + antidote 2.24 Kg/ha): 5%
- % Injury BYG [2, 10]: 98%
- % Injury BYG [2, 11]: 90%
- % Injury BYG [2, 12]: 93%
- % Injury BYG [2, 13]: 85%
- % Injury VL [3, 10]: 70%
- % Injury VL [3, 11]: 80%
- % Injury VL [3, 12]: 80%
- % Injury VL [3, 13]: 75%
- % Inhibition GFT [4, 14]: 20%
- % Inhibition GFT [4, 15]: 30%
- % Inhibition GFT [4, 16]: 65%
- % Inhibition GFT [4, 17]: 75%
- % Inhibition GFT [4, 18]: 20%
- % Inhibition GFT [4, 19]: 30%
- % Inhibition GFT [4, 20]: 60%
- % Inhibition GFT [4, 21]: 70%
- % Inhibition VL [5, 14]: 90%
- % Inhibition VL [5, 15]: 90%
- % Inhibition VL [5, 16]: 90%
- % Inhibition VL [5, 17]: 98%
- % Inhibition VL [5, 18]: 85%
- % Inhibition VL [5, 19]: 90%
- % Inhibition VL [5, 20]: 95%
- % Inhibition VL [5, 21]: 95%
- % Inhibition Corn [6, 14]: 5%
- % Inhibition Corn [6, 15]: 0%
- % Inhibition Corn [6, 16]: 5%
- % Inhibition Corn [6, 17]: 20%
- % Inhibition Corn [6, 18]: 0%
- % Inhibition Corn [6, 19]: 0%
- % Inhibition Corn [6, 20]: 5%
- % Inhibition Corn [6, 21]: 10%
- % Injury BYG [7, 22]: 85%
- % Injury BYG [7, 23]: 90%
- % Injury BYG [7, 24]: 85%
- % Injury BYG [7, 25]: 90%
- % Injury VL [8, 22]: 70%
- % Injury VL [8, 23]: 98%
- % Injury VL [8, 24]: 80%
- % Injury VL [8, 25]: 80%
- % Injury Corn [9, 22]: 45%
- % Injury Corn [9, 23]: 55%
- % Injury Corn [9, 24]: 60%
- % Injury Corn [9, 25]: 45%
